Results reported in PMC10650850, “Discovery, Structure–Activity Relationship and In Vitro Anticancer Activity of Small-Molecule Inhibitors of the Protein–Protein Interactions between AF9/ENL and AF4 or DOT1L” (Cancers, 2023).
Entries after “also recorded” stand apart in the source; their conditions may differ. No end group written: not given here. *: point of attachment. Biotin = O=C1N[C@H]2[C@H](CS[C@H]2CCCCC(=O)*)N1; Ahx = NCCCCCC(=O)O

T1: AF9-DOT1L interaction (Homo sapiens, UniProt P42568)
T1 construct: human AF9 AHD domain (475–568); made in house; host or cells: E. coli BL21(DE3)
T1 sequence (P42568 475-568): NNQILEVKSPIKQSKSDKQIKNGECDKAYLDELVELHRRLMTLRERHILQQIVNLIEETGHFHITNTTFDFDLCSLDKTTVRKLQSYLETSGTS

T2: AF9-AF4 (Homo sapiens, UniProt P42568)
T2 construct: human AF9 AHD domain (475–568); made in house; host or cells: E. coli BL21(DE3)
T2 sequence (P42568 475-568): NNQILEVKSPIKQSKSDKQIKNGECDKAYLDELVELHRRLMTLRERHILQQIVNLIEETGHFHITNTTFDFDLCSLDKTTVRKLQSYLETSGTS

T3: ENL-AF4 (Homo sapiens, UniProt Q03111)
T3 construct: ENL AHD domain (489–559); made in house; host or cells: E. coli BL21(DE3)
T3 sequence (Q03111 489-559): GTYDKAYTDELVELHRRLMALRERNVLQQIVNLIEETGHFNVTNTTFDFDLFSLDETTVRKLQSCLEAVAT

T4: MBP-tagged AF9 AHD domain (475–568) (human, UniProt P42568 475-568)
T4 construct: AF9 (MLLT3), human, C-terminal AHD domain, residues 475-568; cDNA synthesized by Genscript and inserted into pMAL c5X; Expressed from pMAL c5X; the MBP tag is used for capture on anti-MBP acceptor beads and for detection by an MBP antibody; also called MBP-protein; source: E. coli BL21(DE3), purified (amylose resin, size exclusion Superdex 200); not shown: MBP, N-terminal, kept
T4 sequence (looked up): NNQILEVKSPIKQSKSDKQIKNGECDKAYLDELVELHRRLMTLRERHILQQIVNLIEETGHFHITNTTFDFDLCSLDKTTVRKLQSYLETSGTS

T5: MBP-tagged ENL AHD domain (489–559) (human, UniProt Q03111 489-559)
T5 construct: ENL (MLLT1), human, C-terminal AHD domain, residues 489-559; cDNA synthesized by Genscript and inserted into pMAL c5X; Expressed from pMAL c5X; the MBP tag is used for capture on anti-MBP acceptor beads; also called MBP-protein; source: E. coli BL21(DE3), purified (amylose resin, size exclusion Superdex 200); not shown: MBP, N-terminal, kept
T5 sequence (looked up): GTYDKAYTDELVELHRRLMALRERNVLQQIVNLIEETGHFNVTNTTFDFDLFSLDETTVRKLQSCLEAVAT


How the values were obtained:
AF9-DOT1L interaction [1] = molecular target: T1, AF9-DOT1L interaction; assay: Pull-down assay of AF9 AHD with DOT1L peptide-coated beads; assay type: binding; conditions: for remaining activity at 10 µM / remaining activity at 50 µM: Western blot, read-out: AF9 AHD % Control; for remaining activity at 10 µM: compound 10 μM; for remaining activity at 50 µM: compound 50 μM; for Effect on AF9 AHD bound to DOT1L peptide-coated beads (in words): up to 50 µM
Excerpt: A pull-down assay was used to confirm that the strong inhibitors could disrupt the AF9-DOT1L interaction. Streptavidin agarose beads coated with biotinylated DOT1L peptide were used to pull-down the protein AF9 AHD in the solution, followed by thorough washing, SDS-PAGE (sodium dodecyl sulfate-polyacrylamide gel electrophoresis) and Western blotting to visualize and quantitate the protein. […] This alternative, non-optical method confirmed that compounds 24 and 50 can inhibit the PPI between AF9 and DOT1L.
The pull-down assays were conducted following our previous method. Briefly, the biotinylated DOT1L peptide (0.25 mg/mL) was incubated with streptavidin agarose beads (20 μL) in PBS containing 0.1% Triton X-100 (400 µL) for 3h to yield, after washing, DOT1L-coated beads. MBP-tagged AF9 AHD (0.2 µM, 400 µL) was pre-incubated with a compound for 1 h before adding to the beads. After 6 h incubation at 4 °C, the beads were collected, thoroughly washed, and subjected to SDS-PAGE and analyzed by Western blot using an MBP antibody (#2396, Cell signaling, Danvers, MA, USA).

HoxA9, Meis1 and Myc = assay: RT-qPCR of MLL target genes in Molm-13 cells; assay type: cell-based; conditions: 1 and 5 µM, 4 days
Excerpt: The major function of the SEC is to promote transcription elongation for its bound genes. Because of the high affinity of the PPIs between AF9/ENL and AF4, onco-MLL (e.g., MLL-AF4 or MLL-AF9/-ENL) recruits SEC to MLL target genes, facilitates their expression, and eventually causes leukemia initiation. Next, we investigated whether selected inhibitors of these PPIs can inhibit the expression of HoxA9, Meis1 and Myc, which are MLL target genes and their high expression is characteristic of MLL-r leukemia. In addition, high expression of Myc is also observed in a broad range of AMLs and other cancers and is considered a driving factor for oncogenesis. To this end, RNAs from the control and compound-treated Molm-13 cells (harboring MLL-AF9) were extracted and subjected to quantitative PCR. […] RNA extraction and RT-qPCR were performed following our previous method. 10^5 cells/mL were incubated with a compound for 4 days and the RNA was extracted using an RNeasy mini kit (#74104, Qiagen, Germantown, MD, USA). 100–1000 ng of total RNA was reverse transcribed using iScript™ Reverse Transcription Supermix (Bio-Rad, Hercules, CA, USA), using the manufacturer’s protocol. Quantitative real-time PCR was carried out using Fast SYBR Green Master Mix (Applied Biosystems, Waltham, MA, USA) according to the manufacturer’s instructions. Measurements were performed in triplicate using GAPDH as the reference gene. Real-time PCR was performed using the Biosystems Step One Plus detection system. The following sequences of primers were used: […]

AF9-DOT1L interaction [2] = molecular target: T1, AF9-DOT1L interaction; assay: AlphaLisa assay, AF9-DOT1L interaction; assay type: binding; conditions: for IC50: read-out: IC50 (μM) against the AF9-DOT1L interaction
Method in brief: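 AlphaLisa proximity assay using MBP-tagged human AF9 AHD (475–568, 5 nM) on anti-MBP acceptor beads and biotinylated DOT1L peptide (40 nM) on streptavidin donor beads, in PBS with 0.5% BSA, pH 7.5. Compound titrated; IC50 from dose-response fits of 3 independent experiments.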

NB4 = assay: Antiproliferation assay (XTT), NB4; assay type: cell-based; conditions: Homo sapiens, NB-4, 168 h, 7 days incubation, read-out: Antitumor activity EC50, NB4;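 further: EC50 values in Micromolar not Nanomolar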
Method: (§1) The antitumor activity of selected compounds was evaluated against the proliferation of a panel of MLL-r leukemia and other cancer cells. MV4;11 and Molm-13 leukemia cells contain MLL-AF4 and MLL-AF9 fusion oncogenes, respectively. NB4 and HL60 are AML cells without MLL translocation. Hela (cervical cancer) is a solid tumor cell line. […] The anti-proliferation activity of these compounds against other AML cells (i.e., NB4 and HL60) might be due to their inhibition of SEC-mediated gene expression (e.g., Myc), as observed in our previous studies.
(§2) Proliferation inhibition assays were performed using an XTT assay kit (Biotium, Fremont, CA, USA) following our previous methods. The antiproliferation EC50 values were determined using Prism 5 and the reported results were the mean values of at least three independent experiments. The incubation time for all compounds was 7 days.

MV4;11 = assay: Antiproliferation assay (XTT), MV4;11; assay type: cell-based; conditions: Homo sapiens, MV4-11, 168 h, 7 days incubation, read-out: Antitumor activity EC50, MV4;11;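 further: EC50 values in Micromolar not Nanomolar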
Method: as §1, §2

AF9-AF4 = molecular target: T2, AF9-AF4; assay: AlphaLisa assay, AF9-AF4 interaction; assay type: binding; conditions: AF9 AHD, AF4 peptide
Method: (§3) Transcription cofactor AF4, which is the most frequent (~35%) fusion protein in MLL1-r leukemia, is another binding partner of AF9/ENL [35, 36, 37]. The AF9/ENL-AF4 interactions are essential for the formation of SEC, which causes aberrant gene expression in MLL-r leukemia and other AMLs. Using our previously developed AlphaLisa assays, selected compounds were tested for their ability to inhibit the PPIs between AF9 or ENL and AF4.
(§4) The cDNA for the human AF9 AHD domain (475–568) and ENL AHD domain (489–559) was synthesized (by Genscript, Piscataway, NJ, USA) and inserted into the pMAL c5X expression plasmid. The DOT1L peptide (Biotin-AHX-[…]) and AF4 peptide (Biotin-AHX-[…]) for the Alpha assay were purchased from Genscript.
(§5) Alpha assays were developed in our previous publication, using a Perkin-Elmer AlphaLisa anti-MBP kit, which contains streptavidin donor beads and anti-MBP acceptor beads. Briefly, the assay was performed using a MBP-protein (5 nM), a biotinylated peptide (40 nM), and increasing concentrations of a compound in 25 µL buffer (PBS with 0.5% BSA, pH 7.5) in 384-well plates according to the manufacturer’s protocol and measured with a Tecan SPARK microplate reader. Data were imported into Prism (version 5.0), and IC50 values from 3 independent experiments with standard deviation were obtained by using a standard dose-response curve fitting.

HL60 = assay: Antiproliferation assay (XTT), HL60; assay type: cell-based; conditions: Homo sapiens, HL-60, 168 h, 7 days incubation, read-out: Antitumor activity EC50, HL60;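 further: EC50 values in Micromolar not Nanomolar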
Method: as §1, §2

ENL-AF4 = molecular target: T3, ENL-AF4; assay: AlphaLisa assay, ENL-AF4 interaction; assay type: binding; conditions: ENL AHD, AF4 peptide
Method: as §3, §4, §5

Molm13 = assay: Antiproliferation assay (XTT), Molm-13; assay type: cell-based; conditions: Homo sapiens, MOLM-13, 168 h, 7 days incubation, read-out: Antitumor activity EC50, Molm13;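 further: EC50 values in Micromolar not Nanomolar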
Method: as §1, §2

Hela = assay: Antiproliferation assay (XTT), Hela; assay type: cell-based; conditions: Homo sapiens, HeLa, 168 h, 7 days incubation, read-out: Antitumor activity EC50, Hela
Method: as §1, §2

[3] = test system: panel of MLL-r leukemia and other cancer cells; assay: Antiproliferation assay (XTT), panel of MLL-r leukemia and other cancer cells; assay type: cell-based; conditions: 7 days
Method: as §1, §2

[4] = molecular target: T4, MBP-tagged AF9 AHD domain (475–568); assay: AlphaScreen or HTRF; AlphaLisa (Perkin-Elmer anti-MBP kit): MBP-protein (5 nM) on anti-MBP acceptor beads, biotinylated peptide (40 nM) on streptavidin donor beads, increasing concentrations of a small-molecule compound, 25 µL PBS with 0.5% BSA, pH 7.5, 384-well plates; conditions: both partners purified
[5] = molecular target: T5, MBP-tagged ENL AHD domain (489–559); assay: as above; conditions: both partners purified
[6] = MBP-protein 5 nM, biotinylated peptide 40 nM, 3 independent experiments with standard deviation

Row | Molecule | remaining activity at 10 µM (AF9-DOT1L interaction [1]) | remaining activity at 50 µM (AF9-DOT1L interaction [1]) | Effect on AF9 AHD bound to DOT1L peptide-coated beads (in words) (AF9-DOT1L interaction [1]) | Expression of MLL target genes HoxA9, Meis1 and Myc (in words) (HoxA9, Meis1 and Myc) | IC50 (AF9-DOT1L interaction [2]; [6]) | EC50 (NB4) | EC50 (MV4;11) | IC50 (AF9-AF4) | EC50 (HL60) | IC50 (ENL-AF4) | EC50 (Molm13) | EC50 (Hela) | IC50 (μM) against the AF9-DOT1L interaction (AF9-DOT1L interaction [2]; [6]) | inhibition at 5 µM (AF9-DOT1L interaction [2]; compound at 5 μM, read-out: % Inhibition at 5 μM against the AF9-DOT1L interaction) | IC50 AF9-AF4 (AF9-AF4) | Inhibition of tumor cell proliferation (in words) ([3]; MV4;11, Molm-13, NB4, HL60 and Hela cells) | IC50 ENL-AF4 (ENL-AF4) | EC50 ([3]; 168 h, MV4;11, Molm-13, NB4 and HL60 cells, read-out: Antitumor activity EC50, span over MLL-r leukemia and AML cells) | binding result [4] | binding result [5]
1 | Cl.O=C(NCC1CCNCC1)c1cc2ccc(-c3ccc(N4CCCCC4)cc3)cc2s1 [Compound 24, 6-(4-(Piperidin-1-yl)phenyl)-N-(piperidin-4-ylmethyl)-benzo[b]thiophene-2-carboxamide hydrochloride] | 62% | 4% | significantly reduced the amounts of AF9 AHD; also recorded: dose-dependently reduce AF9 AHD | inhibited expression; also recorded: able to reduce the expression | 1.6 ± 0.2 µM | 5.3 ± 1.1 µM | 9.6 ± 1.2 µM | 2.1 ± 0.3 µM | 10 ± 1.8 µM | 2.6 ± 0.3 µM | 4.7 ± 0.3 µM | 50 µM |  |  |  |  |  |  |  | 
2 | Cl.NC(=O)c1ccc(-c2ccc3cc(C(=O)NCC4CCNCC4)sc3c2)cc1 [Compound 37, 6-(4-(Carbamoyl)phenyl)-N-(piperidin-4-ylmethyl)-benzo[b]thiophene-2-carboxamide hydrochloride] | 54% | 44% | did not significantly affect the AF9 AHD levels; also recorded: did not significantly affect the binding | not and did not significantly affect the expression |  | > 50 µM | > 50 µM | > 50 µM | > 50 µM | > 50 µM | > 50 µM | > 50 µM | inactive | 0% | did not inhibit | None of these three compounds inhibited tumor cell proliferation | did not inhibit |  |  | 
3 | Cl.O=C(NCC1CCNCC1)c1cc2cc(-c3ccc(N4CCCCC4)cc3)ccc2s1 [Compound 50, 5-(4-(Piperidin-1-yl)phenyl)-N-(piperidin-4-ylmethyl)-benzo[b]thiophene-2-carboxamide hydrochloride] | 27% | 29% | significantly reduced the amounts of AF9 AHD; also recorded: dose-dependently reduce AF9 AHD | inhibited expression; also recorded: able to reduce the expression | 2.5 ± 0.2 µM | 9.4 ± 1.2 µM | 8.2 ± 1.2 µM | 2.5 ± 0.3 µM | 9 ± 0.9 µM | 3.4 ± 0.4 µM | 5.1 ± 0.2 µM | 25 ± 2.5 µM |  |  |  |  |  | 5.1 to 9.4 µM |  | 
4 | {Biotin-Ahx}-NKLPVSIPLASVVLPSRAERARST (stretch of histone H3K79 methyltransferase DOT1L with an LxVxIxLxxV/L motif; also called biotinylated DOT1L peptide; source: synthetic peptide, bought: Genscript) [DOT1L peptide (Biotin-AHX-NKLPVSIPLASVVLPSRAERARST)] |  |  |  |  |  |  |  |  |  |  |  |  |  |  |  |  |  |  | binds | 
5 | {Biotin-Ahx}-QSLMVKITLDLLSRIPQPPGK (stretch of transcription cofactor AF4 (AFF1) with an LxVxIxLxxV/L motif; also called biotinylated AF4 peptide; source: synthetic peptide, bought: Genscript) [AF4 peptide (Biotin-AHX-QSLMVKITLDLLSRIPQPPGK)] |  |  |  |  |  |  |  |  |  |  |  |  |  |  |  |  |  |  | binds | binds
